Values of other authors as cited in US20230304100A1, “METHOD OF PREDICTING THERAPEUTIC RESPONSE AND PROGNOSIS OF METASTATIC BREAST CANCER TO CHEMOTHERAPEUTIC AGENTS, AND TREATING METASTATIC BREAST CANCER” (Samsung Life Public Welfare Foundation, priority 2021, published 2023).

Tested on: premenopausal HR+/HER2− metastatic breast cancer patients
Settings: Young-PEARL study

## CCCCCOC(=O)Nc1nc(=O)n([C@@H]2O[C@H](C)[C@@H](O)[C@H]2O)cc1F [capecitabine]
  median progression-free survival (PFS): 14.4 months
